Legend:
MINA = biological target: T1, MINA (Homo sapiens, UniProt Q8IUF8); assay: MALDI-based assay for MINA histidyl hydroxylation of peptide; assay type: biochemical; settings: MALDI-TOF, peptide substrate
T1 construct: we recombinantly expressed the catalytic domains of 12 wild type dioxygenases; His-TEV (N); host or cells: E. coli BL21 (DE3)
Description: MALDI-based assay for C14orf169 (NO66) and MINA: To monitor the enzymatic activity of
C14orf169 and MINA recombinant proteins, previous methods were utilized.10-11 Briefly, 10 µM
each recombinant protein was incubated with 10 µM peptide substrate (NH2-
Ascorbic Acid, 100 µM Iron (II), 50mM HEPES pH 7.5, and 200 µM L-Leu NOG or equivalent
volume of water in 10 µL water. Aliquots were kept on ice for 10 minutes before addition of 200
µM 2OG or equivalent volume of water. After 30-60 minutes incubation at 37 °C, 1 µL sample and
1 µL S-DHB matrix were spotted on a MALDI plate and monitored with Bruker FlexControl in
the reflectron positive mode and analyzed on Bruker FlexAnalysis software. […]

[1] = system: asKDM4 mutants (KDM4A-F185A, KDM4C-F187A, KDM4D-F189A and KDM4E-F186A); assay: Demethylation of extracted full-length histones, Western blot with H3K9me3 antibody; assay type: biochemical, human; settings: histones extracted from HEK293T cells, 20 µM (Fig S19 legend)
Description: We next tested the inhibitory potential of 6 against these proteins using H3K9me3 peptide substrate and analyzed it by MALDI-MS. […] We subsequently examined the ability of asKDM4 variants to demethylate full-length histones extracted from mammalian cells. HEK293T cells were cultured in the presence of 10 μM n-octyl IOX1, a broad-spectrum inhibitor of demethylases,[41],[42] to generate a hypermethylated proteome (Figure S19). The extracted histone was incubated with the as variants individually, each with or without 6, and the extent of demethylation was analyzed by Western blot using the H3K9me3-specific antibody. […]
directly to ice and 2M Ammonium Acetate was added and left on ice for 5 minutes. […]
The supernatant was transferred to a fresh 1.5 mL centrifuge tube, 132 µL of TCA was added dropwise to precipitate the histones and incubated on ice for 30 mins to 1.5 hr. […] 1 µL of histone extracts was loaded on a 15% gel with the BSA standards to quantify the amount of H3 for the assay. […]
(NH4)2Fe(SO4)2, 2 mM L-ascorbic acid and 50 mM Tris pH 8.0 were incubated with or without 150 µM of L-Leu NOG for 5 minutes on ice, after which substrate (300 µM 2OG and 2 µg of Histone extract) was added to the tube. The assay was incubated at 37 °C for 1.5 hours, the samples were analyzed via western blotting using H3K9me3 specific antibody. […]

T1 sequence (Q8IUF8 139-271 limits assumed): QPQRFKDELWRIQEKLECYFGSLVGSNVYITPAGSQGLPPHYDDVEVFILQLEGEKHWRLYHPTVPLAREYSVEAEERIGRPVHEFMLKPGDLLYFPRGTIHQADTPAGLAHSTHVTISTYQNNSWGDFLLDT

With CC(C)CC(NC(=O)C(=O)O)C(=O)O (stereo not drawn) [compound 6, N-oxalyl leucine] the “inhibition of MINA” value (MINA) was “No inhibition”, the “inhibition of demethylation of full-length histone H3 by asKDM4 mutants” value [1] was “noticeably inhibited” and the “inhibition of demethylation of full-length histone H3 by asKDM4 mutants” value ([1]; listed as NOL 6) was “inhibits the mutants”.

Source: PMC11783601, “Analogue-Sensitive Inhibition of Histone Demethylases Uncovers Member-Specific Function in Ribosomal Protein Synthesis” (Journal of the American Chemical Society, 2025)
